Test results reported in publication PMC6855808, “Direct binding of phosphatidylglycerol at specific sites modulates desensitization of a ligand-gated ion channel” (eLife, 2019).
Where “and” joins values, the source holds several entries; their conditions need not be identical. Equal values may be shown once.

How the values were obtained:
[1] = system: ELIC WT; experiment: Thermal stability assay (SEC pentamer peak after heating); format: binding, Erwinia chrysanthemi
Procedure: Purified WT ELIC in C10E5 (Buffer A, 0.06% C10E5) was diluted to 1 μM in the absence or presence of various concentrations of phospholipid. Samples were analyzed without and with heating in the absence or presence of phospholipid. […] The stabilizing effect of a phospholipid was quantified as the pentamer amplitude in the presence of phospholipid (heated) divided by control (heated).

[2] = system: ELIC single mutants (R123Q, R286Q, R299Q); experiment: Native MS POPG binding, single arginine mutants as a group; set-up: species or system Erwinia chrysanthemi; settings: 12 μM POPG; not statistically significant
Procedure: (§1) Native MS analysis was similar to previous descriptions for other membrane proteins ([Gault et al., 2016]). For analysis of ELIC in DDM, 30 μl of purified protein in 0.02% DDM at ~1 mg/ml was buffer exchanged into 200 mM ammonium acetate pH 7.5% and 0.02% DDM using Biospin six gel filtration spin columns (Bio-Rad, Hercules, CA). 2 μl of buffer exchanged ELIC was loaded into a borosilicate capillary emitter (Thermo Scientific, Waltham, MA), and analyzed by static nanospray on a Thermo QExactive EMR mass spectrometer. […] Lipid stocks were then mixed with 0.4 mg/ml ELIC in a 1:1 vol ratio for a final concentration of 1 μM ELIC, and samples were analyzed after >5 min incubation.
(§2) MS spectra were deconvoluted using UniDec ([Marty et al., 2015]); deconvolution of spectra with bound lipid was restricted to the 26+ to 22+ charge states (Figure 1—figure supplement 3). Peak heights of apo and lipid-bound species were extracted from UniDec, and analyzed by two approaches. The average number of bound lipids was determined by the following relationship:(1) Averagenumberboundlipid=∑n=0kn\cdot In/∑n=0kIn where n is the number of bound lipids and In is the deconvoluted peak height of ELIC with n bound lipids. […]

[3] = system: ELIC WT; experiment: Native MS phospholipid binding to delipidated ELIC in C10E5; set-up: species or system Erwinia chrysanthemi
Procedure: (§3) Native MS analysis was similar to previous descriptions for other membrane proteins ([Gault et al., 2016]). For analysis of ELIC in DDM, 30 μl of purified protein in 0.02% DDM at ~1 mg/ml was buffer exchanged into 200 mM ammonium acetate pH 7.5% and 0.02% DDM using Biospin six gel filtration spin columns (Bio-Rad, Hercules, CA). 2 μl of buffer exchanged ELIC was loaded into a borosilicate capillary emitter (Thermo Scientific, Waltham, MA), and analyzed by static nanospray on a Thermo QExactive EMR mass spectrometer. The following parameters were used to resolve the ELIC pentamer and minimize dissociation into tetramer and monomer: capillary voltage of 1.2 kV, capillary temperature of 200°C, ion transfer optics set with the injection flatapole, inter-flatapole lens, bent flatapole, transfer multiple as 8, 7, 6, 4 V, respectively, resolution 8,750, AGC target 3 × 10^6, trap pressure set to maximum, CID 200 V, and CE 100 V. For analysis of ELIC in C10E5, ELIC delipidated by injecting 300 μg onto a Sephadex 200 10/300 column (GE Healthcare) at 0.5 ml/min pre-equilibrated with Buffer A, 10% glycerol, and 0.06% C10E5 (Anatrace). 30 μl aliquots were then buffer exchanged to 100 mM ammonium acetate pH 7.5, 0.06% C10E5 using Biospin six columns, and diluted to 0.2 mg/ml. MS measurements on the QExactive EMR were performed with the parameters listed above except: capillary temperature 100°C, CID 75 V and CE 200 V. For lipid binding measurements, stocks of POPG lipid were prepared at 2× the concentration of POPG being tested in 100 mM ammonium acetate pH 7.5% and 0.06% C10E5. Lipid stocks were then mixed with 0.4 mg/ml ELIC in a 1:1 vol ratio for a final concentration of 1 μM ELIC, and samples were analyzed after >5 min incubation.
(§4) MS spectra were deconvoluted using UniDec ([Marty et al., 2015]); deconvolution of spectra with bound lipid was restricted to the 26+ to 22+ charge states (Figure 1—figure supplement 3). Peak heights of apo and lipid-bound species were extracted from UniDec, and analyzed by two approaches. The average number of bound lipids was determined by the following relationship:(1) Averagenumberboundlipid=∑n=0kn\cdot In/∑n=0kIn where n is the number of bound lipids and In is the deconvoluted peak height of ELIC with n bound lipids. Peak heights of apo and lipid-bound species were also plotted as mole fraction versus the number of bound lipids (Figure 1—figure supplement 4).
(§5) Then, the probability (B) that q sites are occupied out of N total sites is given by the binomial probability function:(3) Bq=N!/q!N-q!p^N-q(1-p)^q
(§6) B(q) was used to determine the mole fraction of each lipid-bound species at a given [A], which was used to fit the native MS data in Excel across all [A] by setting K constant and varying N or vice versa.

[4] = target: T1, ELIC R299Q (Dickeya chrysanthemi, UniProt P0C7B7, R298Q); experiment: Native MS POPG binding, mutant; set-up: species or system Erwinia chrysanthemi; settings: binomial fit, N varied; 12 μM POPG
T1 construct: MBP (N, cleaved yes); made in house; host or cells: OverExpress C43 (DE3) E. coli
Procedure: as §3, §4, §5, §6

[5] = target: T2, ELIC R301Q/R299Q (Dickeya chrysanthemi, UniProt P0C7B7, R298Q/R300Q); experiment: Native MS POPG binding, mutant; set-up: species or system Erwinia chrysanthemi; settings: binomial fit, N varied; 12 μM POPG
T2 construct: MBP (N, cleaved yes); made in house; host or cells: OverExpress C43 (DE3) E. coli
Procedure: as §3, §4, §5, §6

[6] = target: T3, ELIC R286Q (Dickeya chrysanthemi, UniProt P0C7B7, R285Q); experiment: Native MS POPG binding, mutant; set-up: species or system Erwinia chrysanthemi; settings: binomial fit, N varied; 12 μM POPG
T3 construct: MBP (N, cleaved yes); made in house; host or cells: OverExpress C43 (DE3) E. coli
Procedure: as §3, §4, §5, §6

[7] = target: T4, ELIC R123Q/R299Q (Dickeya chrysanthemi, UniProt P0C7B7, R123Q/R298Q); experiment: Native MS POPG binding, mutant; set-up: species or system Erwinia chrysanthemi; settings: binomial fit, N varied; 12 μM POPG
T4 construct: MBP (N, cleaved yes); made in house; host or cells: OverExpress C43 (DE3) E. coli
Procedure: as §3, §4, §5, §6

[8] = target: T5, ELIC R117Q/R299Q (Dickeya chrysanthemi, UniProt P0C7B7, R117Q/R298Q); experiment: Native MS POPG binding, mutant; set-up: species or system Erwinia chrysanthemi; settings: binomial fit, N varied; 12 μM POPG
T5 construct: MBP (N, cleaved yes); made in house; host or cells: OverExpress C43 (DE3) E. coli
Procedure: as §3, §4, §5, §6

[9] = target: T6, ELIC R286Q/R299Q (Dickeya chrysanthemi, UniProt P0C7B7, R285Q/R298Q); experiment: Native MS POPG binding, mutant; set-up: species or system Erwinia chrysanthemi; settings: binomial fit, N varied; 12 μM POPG
T6 construct: MBP (N, cleaved yes); made in house; host or cells: OverExpress C43 (DE3) E. coli
Procedure: as §3, §4, §5, §6

[10] = system: ELIC double mutants (arginine mutants in combination with R299Q); experiment: Native MS POPG binding, double arginine mutants as a group; set-up: species or system Erwinia chrysanthemi
Procedure: as §3, with “MS measurements on the QExactive EMR were performed with the parameters listed above except: capillary temperature 100°C, CID 75 V and CE 200 V. For lipid binding measurements, stocks of POPG lipid were prepared at 2× the concentration of POPG being tested in 100 mM ammonium acetate pH 7.5% and 0.06% C10E5.” left out
as §2

[11] = target: T7, ELIC L238A (Dickeya chrysanthemi, UniProt P0C7B7, L237A); experiment: Native MS POPG binding, mutant; set-up: species or system Erwinia chrysanthemi; settings: 12 μM POPG
T7 construct: MBP (N, cleaved yes); made in house; host or cells: OverExpress C43 (DE3) E. coli
Procedure: as §1, §2

[12] = system: ELIC WT; experiment: Excised patch-clamp recordings from giant liposomes; settings: 30 mM cysteamine; for Desensitization norm current at 20 s: normalized to peak response

T6 sequence (P0C7B7 whole entry R285Q/R298Q): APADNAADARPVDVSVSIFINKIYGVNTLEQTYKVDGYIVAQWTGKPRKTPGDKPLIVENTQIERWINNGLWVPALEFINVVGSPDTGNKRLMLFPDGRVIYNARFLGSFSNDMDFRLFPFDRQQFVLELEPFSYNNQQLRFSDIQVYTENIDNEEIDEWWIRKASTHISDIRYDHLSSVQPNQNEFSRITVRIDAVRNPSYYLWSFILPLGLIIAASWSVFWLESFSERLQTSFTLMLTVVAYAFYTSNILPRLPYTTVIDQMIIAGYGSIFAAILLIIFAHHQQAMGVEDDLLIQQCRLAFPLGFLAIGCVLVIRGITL
T1 sequence (P0C7B7 whole entry R298Q): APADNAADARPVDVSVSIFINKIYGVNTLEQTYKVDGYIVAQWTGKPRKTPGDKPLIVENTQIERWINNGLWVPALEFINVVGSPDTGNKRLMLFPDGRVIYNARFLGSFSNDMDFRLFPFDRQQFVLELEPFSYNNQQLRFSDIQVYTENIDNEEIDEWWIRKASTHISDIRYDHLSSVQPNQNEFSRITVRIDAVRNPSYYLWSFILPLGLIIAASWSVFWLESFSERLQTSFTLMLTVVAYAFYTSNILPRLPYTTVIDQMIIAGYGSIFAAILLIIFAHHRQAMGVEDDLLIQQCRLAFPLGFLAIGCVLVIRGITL
T5 sequence (P0C7B7 whole entry R117Q/R298Q): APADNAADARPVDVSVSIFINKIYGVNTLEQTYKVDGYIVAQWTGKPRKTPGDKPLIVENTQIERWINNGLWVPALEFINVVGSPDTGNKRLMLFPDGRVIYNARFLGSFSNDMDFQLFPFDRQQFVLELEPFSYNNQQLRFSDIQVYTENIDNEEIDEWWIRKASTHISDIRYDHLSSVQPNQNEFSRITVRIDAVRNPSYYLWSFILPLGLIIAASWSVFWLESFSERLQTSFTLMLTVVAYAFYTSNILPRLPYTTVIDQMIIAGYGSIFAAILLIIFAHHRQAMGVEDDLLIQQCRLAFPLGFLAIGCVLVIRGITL
T4 sequence (P0C7B7 whole entry R123Q/R298Q): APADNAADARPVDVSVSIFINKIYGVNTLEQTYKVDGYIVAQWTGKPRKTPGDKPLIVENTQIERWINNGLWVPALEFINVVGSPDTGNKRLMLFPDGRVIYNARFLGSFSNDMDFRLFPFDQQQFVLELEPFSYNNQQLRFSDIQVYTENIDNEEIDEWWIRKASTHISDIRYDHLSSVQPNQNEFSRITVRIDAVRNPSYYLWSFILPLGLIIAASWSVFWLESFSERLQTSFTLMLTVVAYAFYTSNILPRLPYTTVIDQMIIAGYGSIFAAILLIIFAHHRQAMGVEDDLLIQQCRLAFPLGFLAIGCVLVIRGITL
T3 sequence (P0C7B7 whole entry R285Q): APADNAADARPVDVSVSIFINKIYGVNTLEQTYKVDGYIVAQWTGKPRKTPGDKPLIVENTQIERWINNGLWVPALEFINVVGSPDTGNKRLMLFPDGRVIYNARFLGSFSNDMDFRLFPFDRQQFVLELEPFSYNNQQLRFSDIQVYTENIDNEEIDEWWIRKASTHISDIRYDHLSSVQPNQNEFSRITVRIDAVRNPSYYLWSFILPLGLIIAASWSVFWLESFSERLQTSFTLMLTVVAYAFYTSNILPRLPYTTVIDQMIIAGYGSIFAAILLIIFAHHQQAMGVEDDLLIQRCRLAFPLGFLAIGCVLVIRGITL
T2 sequence (P0C7B7 whole entry R298Q/R300Q): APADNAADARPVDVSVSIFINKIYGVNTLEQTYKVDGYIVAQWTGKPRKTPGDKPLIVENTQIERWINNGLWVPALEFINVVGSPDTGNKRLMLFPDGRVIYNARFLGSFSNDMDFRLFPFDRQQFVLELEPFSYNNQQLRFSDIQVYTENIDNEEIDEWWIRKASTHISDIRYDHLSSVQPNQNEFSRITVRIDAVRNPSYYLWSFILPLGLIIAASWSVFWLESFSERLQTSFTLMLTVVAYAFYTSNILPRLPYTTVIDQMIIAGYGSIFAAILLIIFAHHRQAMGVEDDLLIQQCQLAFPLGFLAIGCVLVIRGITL
T7 sequence (P0C7B7 whole entry L237A): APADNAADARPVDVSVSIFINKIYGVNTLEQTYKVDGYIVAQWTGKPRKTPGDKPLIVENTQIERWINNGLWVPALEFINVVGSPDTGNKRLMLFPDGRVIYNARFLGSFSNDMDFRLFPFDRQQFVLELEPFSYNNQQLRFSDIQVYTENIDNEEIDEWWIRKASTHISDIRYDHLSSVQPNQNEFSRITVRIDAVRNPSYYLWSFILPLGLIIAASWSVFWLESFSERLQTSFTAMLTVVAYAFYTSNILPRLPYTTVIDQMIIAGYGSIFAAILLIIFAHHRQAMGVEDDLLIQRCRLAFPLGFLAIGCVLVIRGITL

With `CCCCCCCC/C=C\CCCCCCCC(=O)OC(COC(=O)CCCCCCCCCCCCCCC)COP(=O)(O)OCC(O)CO` (centres unmarked) [POPG, 1-palmitoyl-2-oleoyl-phosphatidylglycerol] the EC50 ([1]; 1 μM ELIC in C10E5, 32°C for 15 min, read-out: EC50 of thermal stabilizing effect (concentration of POPG for 50% effect)) was 52 µM, the “Fraction of thermal stabilizing effect yielded by 32 bound POPG” value ([1]; extrapolation relating POPG binding to thermal stability) was ~ 82% and > 80% and the “Decrease in average number of bound POPG compared to WT” value [2] was 13–18%. The “Average number of bound phospholipids per pentamer” value ([3]; 12 μM lipid, 1 μM ELIC) was 2.9, the “Maximum number of bound POPG per pentamer seen in native MS spectra” value ([3]; 12 μM lipid, 1 μM ELIC) was “up to nine” and the Kd ([3]; binomial binding model, 32 sites of equal affinity, 1 μM ELIC in C10E5, read-out: Dissociation constant K) was 101 µM. The “Fold higher affinity than POPC” value ([3]; from binomial fits) was roughly 2.8 ×, the “Fold higher affinity than POPE” value ([3]; from binomial fits) was ~ 1.9 × and the “N (# sites)” value [4] was 27. The “N (# sites)” value [5] was 21, the “N (# sites)” value [6] was 28 and the “N (# sites)” value [7] was 18. For the same molecule, the “N (# sites)” value [8] was 20, the “N (# sites)” value [9] was 18 and the “Decrease in bound phospholipid with each double mutant” value [10] was 35–45%. For the same molecule, the “Decrease in average number of bound POPG relative to R299Q” value ([10]; 12 μM POPG) was 27–32%, the “Decrease in average number of bound POPG relative to WT” value ([10]; 12 μM POPG) was 38–41% and the “Increase in average number of POPG bound compared to WT” value [11] was ~ 1.7 x. The “Desensitization weighted τ” value ([12]; 12 mole% POPG giant liposomes) was 0.93 ± 0.32 s, the “Activation τ” value ([12]; 12 mole% POPG) was 112 ± 29 ms and the “Desensitization norm current at 20 s” value ([12]; 12 mole% POPG) was 0.05 ± 0.02. The “Activation τ” value ([12]; 25 mole% POPG) was 134 ± 50 ms, the “Desensitization norm current at 20 s” value ([12]; 25 mole% POPG) was 0.10 ± 0.04 and the “Desensitization weighted τ” value ([12]; 40 mole% POPG giant liposomes) was 2.98 ± 0.24 s. The “Activation τ” value ([12]; 40 mole% POPG) was 133 ± 66 ms and the “Desensitization norm current at 20 s” value ([12]; 40 mole% POPG) was 0.21 ± 0.03.
